This is an account of results in patent US8980077B2, “Plating bath and method” (Rohm and Haas Electronic Materials LLC, priority 2012, dated 2015).

A short description of data set [1]: Solubility in 17% methane sulfonic acid (MSA)/DI water solution. Conditions: aqueous with cosolvent or surfactant or cyclodextrin, thermodynamic from solid.
Procedure: (§2) If a compound dissolved, then an additional 25 mg (in increments) of that compound was added until either no more would dissolve or 250 mg were dissolved in the 5 mL.
Data set [2] in a line: Stability Test 1: DI water solution plus aqueous MSA (70%), 50° C. oven, visual inspection for precipitate. In kind it is physicochemical. Particulars: 5.96 mg/mL in DI water plus aqueous MSA (70%). The procedure: (§1) The stability of Compound 6 and Comparative 1 were determined using 2 different tests. In Test 1, solutions of each of Compound 6 and Comparative 1 dissolved in DI water (at a concentration of 5.96 mg/mL) were placed in separate vials. To each vial was added aqueous MSA (70%), the vials were then capped, placed in a 50° C. oven, and periodically visually inspected for the formation of precipitate. […] In Test 2, solutions of each of Compound 6 and Comparative 1 dissolved in D2O (at a concentration of 5.96 mg/mL) were placed in separate NMR tubes. A ^1H NMR (400 MHz) spectrum was obtained for each solution. Next, a solution of MSA (70%) dissolved in D2O was prepared and added to each NMR tube. A second ^1H NMR spectrum was immediately taken of each sample. Next, the NMR tubes were placed in a 50° C. oven, and periodically removed, analyzed by ^1H NMR, and returned to the oven.

The nature of data set [3]: Extended storage or long-term use in tin-silver electroplating bath (prior-art complexers). The format is physicochemical. The text has this:
U.S. Pat. No. 6,998,036 discloses an acidic tin-silver alloy electroplating bath containing a certain sulfide or thiol-substituted ether compound.
U.S. Pat. No. 7,628,903 discloses conventional silver and silver-alloy electroplating baths containing certain sulfide compounds. This patent purports that these electroplating baths have good stability.

Data set [4] can be described thus: Stability in 17% MSA/water at 50° C., visual inspection for precipitation. Conditions: for Stability (at 50° C.): 5 mg in 1 mL 17% MSA/water, time without precipitation; for Stability compared with Comparatives 1 and 2: 17% MSA/water.
Procedure: The stability of various compounds was determined as follows: 5 mg of a compound was dissolved into 1 mL of 17% MSA/water solution and placed in a glass vial. Each vial was capped and placed in a dry heating bath at 50° C. for up to three weeks. Each sample was periodically removed from the bath and visually inspected for evidence of precipitation.
Data set [5] can be described thus: Stability Test 2: D2O solution plus MSA (70%), 50° C. oven, 1H NMR. The format is physicochemical. As to the method:
as §1

Another data set can be described thus: physchem. Particulars: aqueous with cosolvent or surfactant or cyclodextrin, thermodynamic from solid.

Each structure is given as a SMILES string. Values after ≈ are worked out from the molar mass of the structure shown.

Procedure for physchem: as §2

The solubility is the dissolved amount per volume that the medium holds. Low values mean little dissolved substance, high ones much dissolved substance. Take `O=S(=O)(O)CCCSCCSCCCS(=O)(=O)O` [Compound 5, 3,3′-(ethane-1,2-diylbis(sulfanediyl))bis(propane-1-sulfonic acid)]: the solubility in data set [1] was more than 60 mg/mL.

`OCCSCCSCCO` [Comparative 1, 2,2′-[1,2-ethanediylbis(thio)]bis-ethanol, reference compound]: in data set [2] (after 60 hours), the “Formation of precipitate (Test 1, visual inspection)” value is on record as “a copious amount of a white, flocculent precipitate”. Besides, the “Behaviour upon extended storage or long term use in the electroplating bath” value in data set [3] is listed as “polymerize”. For the same compound, the “Stability (at 50° C.)” value in data set [4] was less than 24 h. In addition, in data set [5] (5.96 mg/mL in D2O, immediately upon addition of the MSA solution), the “Change of 1H NMR spectrum (Test 2)” value is given as “loss of the ^1H NMR spectrum”. Moreover, in data set [1], the solubility lay in the range of 30 to 35 mg/mL (≈ 165 to 192 mM).

`O=C(O)CCSCCSCCC(=O)O` [Compound 2, 3,3′-(Ethane-1,2-diylbis(sulfanediyl))dipropanoic acid] had a solubility in data set [1] of less than 5 mg/mL.

For `O=S(=O)(O)CCSCCSCCS(=O)(=O)O` [Compound 4, 2,2′-(Ethane-1,2-diylbis(sulfanediyl))diethanesulfonic acid], in data set [1], the solubility is more than 60 mg/mL.

In the case of `O=C(O)CSCSCC(=O)O` [Compound 8, 2,2′-(Methylenebis(sulfanediyl))diacetic acid], the “Stability (at 50° C.)” value in data set [4] was more than 3 weeks. The compound further came in with a solubility in data set [1] of more than 50 mg/mL.

In turn, `NC(=O)CCSCCSCCC(N)=O` [Compound 1, 3,3′-(Ethane-1,2-diylbis(sulfanediyl))dipropanamide] came in with a solubility in data set [1] of less than 5 mg/mL.

Consider `O=C(O)CC(SCSC(CC(=O)O)C(=O)O)C(=O)O` (stereo not drawn) [Compound 9, 2,2′-(Methylenebis(sulfanediyl))disuccinic acid], for which the “Stability (at 50° C.)” value in data set [4] was more than 3 weeks. The compound further yielded a solubility in data set [1] of approximately 10 mg/mL (≈ 32 mM).

Take `O=C(O)CSCCCSCC(=O)O` [Compound 10, 2,2′-(Propane-1,3-diylbis(sulfanediyl))diacetic acid]: in data set [4], the “Stability (at 50° C.)” value is recorded as more than 3 weeks. Also, the solubility in data set [1] is more than 50 mg/mL.

Take `O=S(=O)(O)CCCSCCCSCCCS(=O)(=O)O` [Compound 12, 3,3′-(Propane-1,3-diylbis(sulfanediyl))dipropyl sulfonate]: the “Stability (at 50° C.)” value in data set [4] is more than 3 weeks. The solubility in data set [1] was more than 50 mg/mL.

For `O=C(O)CSCCSCC(=O)O` [Compound 3, 2,2′-(Ethane-1,2-diylbis(sulfanediyl))diacetic acid], in data set [1], the concentration in solution (solubility) was 30 mg/mL (≈ 143 mM).

`OCCCSCSCCCO` [Compound 7, 3,3′-(Methylenebis(sulfanediyl))dipropanol]: in data set [4], the “Stability (at 50° C.)” value is more than 3 weeks; the “Stability compared with Comparatives 1 and 2” value is “significantly better”. In data set [1], this compound registered a solubility of more than 50 mg/mL.

`OCCCSCCSCCCO` [Compound 6, 3,3′-[1,2-Ethanediylbis(thio)]bis-1-propanol]: the “Formation of precipitate (Test 1, visual inspection)” value in data set [2] (after 120 hours) is on record as “no precipitate formation”. In “physchem”, this compound yielded a solubility of 5 mg/mL (≈ 23.8 mM). In data set [4], the “Stability (at 50° C.)” value is more than 3 weeks; the “Stability compared with Comparatives 1 and 2” value is listed as “significantly better”. For the same compound, the “Change of 1H NMR spectrum (Test 2)” value in data set [5] (5.96 mg/mL in D2O plus MSA (70%), 50° C., after 7 days) is given as “no change in the ^1H NMR spectrum”.

In the case of `O=S(=O)(O)CCSCCCSCCS(=O)(=O)O` [Compound 11, 2,2′-(Propane-1,3-diylbis(sulfanediyl))diethyl sulfonate], the “Stability (at 50° C.)” value in data set [4] is more than 3 weeks. Also, the solubility in data set [1] was more than 50 mg/mL.

Take `OCCSCSCCO` [Comparative 2, 2,2′-(Methylenebis(sulfanediyl))diethanol, reference compound]: the “Stability (at 50° C.)” value in data set [4] is less than 1 week. Besides, the solubility in data set [1] was more than 50 mg/mL.
